Data set [1] addresses GLP-1R (Homo sapiens, UniProt P43220). Description: GLP-1 receptor-mediated cAMP induction, luciferase reporter gene antagonism assay. The class given is cell-based. More on the design: host or cells: HEK 293. The note with it: antagonism of 0.05 nM GLP-1, HEK 293 cells. In short, it runs like this:
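HEK 293 cells cotransfected with human GLP-1 receptor and CRE-luciferase were serum-deprived 16 h, then given serial peptide dilutions followed by 0.05 nM GLP-1 and incubated 5 h at 37° C.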
(In general: In a reporter assay the amount or activity of a reporter protein is the signal.)

Data set [2] is described as follows: physchem.
Setting [3] is: Table 3, amino acid substitution variants of Jant4-K40, read-out: Bioactivity IC50.
Setting [4] is: pH 7.7, Solubility 80 mM AmeBicarb pH7.7.

SMILES strings stand for the structures. Converted amounts (≈) assume the structure as drawn. Where two headings read alike, the source gives them in different places. Starred links: 1 amine or outer side, 2 acyl side, 3 side chain; linkers in the order of their positions; H or OH if unused. Non-standard residues stand in square brackets, D forms with d. Residues, ends and D or L forms follow the SMILES beside them. Groups on a side chain read outwards from the residue. *: point of attachment. γGlu = O=C(O)[C@H](CCC(=O)[*:2])N[*:1]; Palmitoyl = CCCCCCCCCCCCCCCC(=O)*; AEEA = NCCOCCOCC(=O)O

What is called solubility is the concentration that dissolves in the medium under given conditions.

GLP-1R, sequence (P43220 24-463): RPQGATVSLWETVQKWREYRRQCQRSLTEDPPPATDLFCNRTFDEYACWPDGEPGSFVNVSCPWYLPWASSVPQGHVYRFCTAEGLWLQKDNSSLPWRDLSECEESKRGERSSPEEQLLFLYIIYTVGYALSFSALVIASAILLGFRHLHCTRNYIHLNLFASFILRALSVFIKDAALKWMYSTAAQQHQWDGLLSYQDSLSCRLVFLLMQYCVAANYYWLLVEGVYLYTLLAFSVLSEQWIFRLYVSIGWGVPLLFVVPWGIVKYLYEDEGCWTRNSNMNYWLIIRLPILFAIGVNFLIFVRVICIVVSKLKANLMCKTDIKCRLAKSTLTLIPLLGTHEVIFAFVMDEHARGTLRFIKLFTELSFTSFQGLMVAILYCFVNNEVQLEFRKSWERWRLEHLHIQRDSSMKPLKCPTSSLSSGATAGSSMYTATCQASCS

`CCCCCCCCCCCCCCCC(=O)NCCCC[C@H](NC(=O)[C@H](CO)NC(=O)[C@@H]1CCCN1C(=O)[C@@H]1CCCN1C(=O)[C@@H]1CCCN1C(=O)[C@H](C)NC(=O)CNC(=O)[C@H](CO)NC(=O)[C@H](CO)NC(=O)[C@@H]1CCCN1C(=O)CNC(=O)CNC(=O)[C@H](CCCCN)NC(=O)[C@@H](NC(=O)[C@H](CC(C)C)NC(=O)[C@H](Cc1c[nH]c2ccccc12)NC(=O)[C@H](C)NC(=O)[C@@H](NC(=O)[C@H](Cc1ccccc1)NC(=O)[C@H](CCC(=O)O)NC(=O)[C@H](CCCNC(=N)N)NC(=O)[C@H](NC(=O)[C@H](C)NC(=O)[C@H](CCC(N)=O)NC(=O)[C@H](CCC(=O)O)NC(=O)[C@H](CCC(=O)O)NC(=O)[C@H](CC(C)C)NC(=O)[C@H](Cc1ccc(O)cc1)NC(=O)[C@H](CO)NC(=O)[C@H](CO)NC(=O)[C@@H](NC(=O)[C@@H](N)CC(=O)O)C(C)C)C(C)C)[C@@H](C)CC)C(C)C)C(N)=O` [compound 50] (H-DVSSYLEEQA[dV]REFIAWLVKGGPSSGAPPPSK(Palmitoyl)-NH2): in data set [1] (Table 5, d-AA variants of 9-40am Jant4 K40[C16], read-out: Bioactivity KC50), the IC50 stood at 124 nM. Besides, the solubility in data set [2] (pH 7.7, Solubility [mg/mL] 80 mM/AmBicarb pH7.7) is > 20 mg/mL.
`CCCCCCCCCCCCCCCC(=O)NCCCC[C@H](NC(=O)[C@H](CO)NC(=O)[C@@H]1CCCN1C(=O)[C@@H]1CCCN1C(=O)[C@@H]1CCCN1C(=O)[C@H](C)NC(=O)CNC(=O)[C@H](CO)NC(=O)[C@H](CO)NC(=O)[C@@H]1CCCN1C(=O)CNC(=O)CNC(=O)[C@H](CCCNC(=N)N)NC(=O)[C@@H](NC(=O)[C@H](CC(C)C)NC(=O)[C@H](Cc1c[nH]c2ccccc12)NC(=O)[C@H](C)NC(=O)[C@@H](NC(=O)[C@H](Cc1ccccc1)NC(=O)[C@H](CCC(=O)O)NC(=O)[C@H](CCCNC(=N)N)NC(=O)[C@@H](NC(=O)[C@H](C)NC(=O)[C@H](CCC(N)=O)NC(=O)[C@H](CCC(=O)O)NC(=O)[C@H](CCC(=O)O)NC(=O)[C@H](CC(C)C)NC(=O)[C@H](Cc1ccc(O)cc1)NC(=O)[C@H](CO)NC(=O)[C@H](CO)NC(=O)[C@@H](NC(=O)[C@@H](N)CC(=O)O)C(C)C)C(C)C)[C@@H](C)CC)C(C)C)C(N)=O` [compound 69] (H-DVSSYLEEQAVREFIAWLVRGGPSSGAPPPSK(Palmitoyl)-NH2): the IC50 in data set [1] (setting [3]) came to 16 nM. Also, the concentration in solution in data set [2] (setting [4]) (solubility) came to 13.7 mg/mL (≈ 3.73 mM).
`CCCCCCCCCCCCCCCC(=O)NCCCC[C@H](NC(=O)[C@H](CO)NC(=O)[C@@H]1CCCN1C(=O)[C@@H]1CCCN1C(=O)[C@@H]1CCCN1C(=O)[C@H](C)NC(=O)CNC(=O)[C@H](CO)NC(=O)[C@H](CO)NC(=O)[C@@H]1CCCN1C(=O)CNC(=O)CNC(=O)C(C)(C)NC(=O)[C@H](CCCCN)NC(=O)[C@H](CC(C)C)NC(=O)[C@H](Cc1c[nH]c2ccccc12)NC(=O)[C@H](C)NC(=O)[C@@H](NC(=O)[C@H](Cc1ccccc1)NC(=O)[C@H](CCC(=O)O)NC(=O)[C@H](CCCNC(=N)N)NC(=O)[C@@H](NC(=O)[C@H](C)NC(=O)[C@H](CCC(N)=O)NC(=O)[C@H](CCC(=O)O)NC(=O)[C@H](CCC(=O)O)NC(=O)[C@H](CC(C)C)NC(=O)[C@H](Cc1ccc(O)cc1)NC(=O)[C@H](CO)NC(=O)[C@H](CO)NC(=O)[C@@H](NC(=O)[C@@H](N)CC(=O)O)C(C)C)C(C)C)[C@@H](C)CC)C(N)=O` [SEQ ID NO: 43]: the IC50 in data set [1] (Table 4, Aib variants of 9-40am Jant4 K40[C16], read-out: Bioactivity IC50) amounted to 13 nM. Also, the solubility in data set [2] (pH 7.7, Solubility [mg/mL] 80 mM AmBicarb pH7.7) came to 18.9 mg/mL (≈ 5.21 mM); in data set [2] (pH 7.7, Solubility [mg/mL] PBS pH7.7) it was 0.2 mg/mL (≈ 0.0552 mM).
Take `CCCCCCCCCCCCCCCC(=O)N[C@@H](CCC(=O)NCCOCCOCC(=O)NCCCC[C@H](NC(=O)[C@H](CO)NC(=O)[C@@H]1CCCN1C(=O)[C@@H]1CCCN1C(=O)[C@@H]1CCCN1C(=O)[C@H](C)NC(=O)CNC(=O)[C@H](CO)NC(=O)[C@H](CO)NC(=O)[C@@H]1CCCN1C(=O)CNC(=O)CNC(=O)[C@H](CCCNC(=N)N)NC(=O)[C@@H](NC(=O)[C@H](CC(C)C)NC(=O)[C@H](Cc1c[nH]c2ccccc12)NC(=O)[C@H](C)NC(=O)[C@@H](NC(=O)[C@H](Cc1ccccc1)NC(=O)[C@H](CCC(=O)O)NC(=O)[C@H](CCCNC(=N)N)NC(=O)[C@@H](NC(=O)[C@H](C)NC(=O)[C@H](CCC(N)=O)NC(=O)[C@H](CCC(=O)O)NC(=O)[C@H](CCC(=O)O)NC(=O)[C@H](CC(C)C)NC(=O)[C@H](Cc1ccc(O)cc1)NC(=O)[C@H](CO)NC(=O)[C@H](CO)NC(=O)[C@@H](NC(=O)[C@@H](N)CC(=O)O)C(C)C)C(C)C)[C@@H](C)CC)C(C)C)C(=O)O)C(=O)O` [compound 77] (H-DVSSYLEEQAVREFIAWLVRGGPSSGAPPPSK([AEEA-γGlu-Palmitoyl])-OH): the IC50 in data set [1] (setting [3]) was found to be 13 nM. Besides, in data set [2] (setting [4]), the solubility was > 20 mg/mL.
Taken in the same sequence, the figures for `CCCCCCCCCCCCCCCC(=O)NCCCC[C@H](NC(=O)[C@H](CO)NC(=O)[C@@H]1CCCN1C(=O)[C@@H]1CCCN1C(=O)[C@@H]1CCCN1C(=O)[C@H](C)NC(=O)CNC(=O)[C@H](CO)NC(=O)[C@H](CO)NC(=O)[C@@H]1CCCN1C(=O)CNC(=O)CNC(=O)[C@H](CCCNC(=N)N)NC(=O)[C@@H](NC(=O)[C@H](CC(C)C)NC(=O)[C@H](Cc1c[nH]c2ccccc12)NC(=O)[C@H](CCC(=O)O)NC(=O)[C@@H](NC(=O)[C@H](Cc1ccccc1)NC(=O)[C@H](CCC(=O)O)NC(=O)[C@H](CCCNC(=N)N)NC(=O)[C@@H](NC(=O)[C@H](C)NC(=O)[C@H](CCC(N)=O)NC(=O)[C@H](CCC(=O)O)NC(=O)[C@H](CCC(=O)O)NC(=O)[C@H](CC(C)C)NC(=O)[C@H](Cc1ccc(O)cc1)NC(=O)[C@H](CCCNC(=N)N)NC(=O)[C@H](CO)NC(=O)[C@@H](NC(=O)[C@@H](N)CC(=O)O)C(C)C)C(C)C)[C@@H](C)CC)C(C)C)C(N)=O` [compound 74] (H-DVSRYLEEQAVREFIEWLVRGGPSSGAPPPSK(Palmitoyl)-NH2; N-terminus assumed) were 15 nM and > 20 mg/mL.
Taken in the same sequence, the figures for `CCCCCCCCCCCCCCCC(=O)N[C@@H](CCC(=O)NCCOCCOCC(=O)NCCCC[C@H](NC(=O)[C@H](CO)NC(=O)[C@@H]1CCCN1C(=O)[C@@H]1CCCN1C(=O)[C@@H]1CCCN1C(=O)[C@H](C)NC(=O)CNC(=O)[C@H](CO)NC(=O)[C@H](CO)NC(=O)[C@@H]1CCCN1C(=O)CNC(=O)CNC(=O)[C@H](CCCNC(=N)N)NC(=O)[C@@H](NC(=O)[C@H](CC(C)C)NC(=O)[C@H](Cc1c[nH]c2ccccc12)NC(=O)[C@H](CCC(=O)O)NC(=O)[C@@H](NC(=O)[C@H](Cc1ccccc1)NC(=O)[C@H](CCC(=O)O)NC(=O)[C@H](CCCNC(=N)N)NC(=O)[C@@H](NC(=O)[C@H](C)NC(=O)[C@H](CCC(N)=O)NC(=O)[C@H](CCC(=O)O)NC(=O)[C@H](CCC(=O)O)NC(=O)[C@H](CC(C)C)NC(=O)[C@H](Cc1ccc(O)cc1)NC(=O)[C@H](CCCNC(=N)N)NC(=O)[C@H](CO)NC(=O)[C@@H](NC(=O)[C@@H](N)CC(=O)O)C(C)C)C(C)C)[C@@H](C)CC)C(C)C)C(=O)O)C(=O)O` [compound 16] (H-DVSRYLEEQAVREFIEWLVRGGPSSGAPPPSK([AEEA-γGlu-Palmitoyl])-OH; N-terminus assumed) were 18 nM and > 20 mg/mL.
The matching figures for `CCCCCCCCCCCCCCCC(=O)NCCCC[C@H](NC(=O)[C@H](CO)NC(=O)[C@@H]1CCCN1C(=O)[C@@H]1CCCN1C(=O)[C@@H]1CCCN1C(=O)[C@H](C)NC(=O)CNC(=O)[C@H](CO)NC(=O)[C@H](CO)NC(=O)[C@@H]1CCCN1C(=O)CNC(=O)CNC(=O)[C@H](CCCNC(=N)N)NC(=O)[C@@H](NC(=O)[C@H](CC(C)C)NC(=O)[C@H](Cc1c[nH]c2ccccc12)NC(=O)[C@H](C)NC(=O)[C@@H](NC(=O)[C@H](Cc1ccccc1)NC(=O)[C@H](CCC(=O)O)NC(=O)[C@H](CCCNC(=N)N)NC(=O)[C@@H](NC(=O)[C@H](C)NC(=O)[C@H](CCC(N)=O)NC(=O)[C@H](CCC(=O)O)NC(=O)[C@H](CCC(=O)O)NC(=O)[C@H](CC(C)C)NC(=O)[C@H](Cc1ccc(O)cc1)NC(=O)[C@H](CCCNC(=N)N)NC(=O)[C@H](CO)NC(=O)[C@@H](NC(=O)[C@@H](N)CC(=O)O)C(C)C)C(C)C)[C@@H](C)CC)C(C)C)C(N)=O` [compound 73] (H-DVSRYLEEQAVREFIAWLVRGGPSSGAPPPSK(Palmitoyl)-NH2; N-terminus assumed): 27 nM and < 0.1 mg/mL.
Regarding `CCCCCCCCCCCCCCCC(=O)N[C@@H](CCC(=O)NCCOCCOCC(=O)NCCCC[C@H](NC(=O)[C@H](CO)NC(=O)[C@@H]1CCCN1C(=O)[C@@H]1CCCN1C(=O)[C@@H]1CCCN1C(=O)[C@H](C)NC(=O)CNC(=O)[C@H](CO)NC(=O)[C@H](CO)NC(=O)[C@@H]1CCCN1C(=O)CNC(=O)CNC(=O)[C@H](CCCNC(=N)N)NC(=O)[C@@H](NC(=O)[C@H](CC(C)C)NC(=O)[C@H](Cc1c[nH]c2ccccc12)NC(=O)[C@H](CCC(=O)O)NC(=O)[C@@H](NC(=O)[C@H](Cc1ccccc1)NC(=O)[C@H](CCC(=O)O)NC(=O)[C@H](CCCNC(=N)N)NC(=O)[C@@H](NC(=O)[C@H](C)NC(=O)[C@H](CCC(N)=O)NC(=O)[C@H](CCC(=O)O)NC(=O)[C@H](CCC(=O)O)NC(=O)[C@H](CC(C)C)NC(=O)[C@H](Cc1ccc(O)cc1)NC(=O)[C@H](CO)NC(=O)[C@H](CO)NC(=O)[C@@H](NC(=O)[C@@H](N)CC(=O)O)C(C)C)C(C)C)[C@@H](C)CC)C(C)C)C(=O)O)C(=O)O` [compound 78] (H-DVSSYLEEQAVREFIEWLVRGGPSSGAPPPSK([AEEA-γGlu-Palmitoyl])-OH; N-terminus assumed), the IC50 in data set [1] (setting [3]) worked out at 19 nM. Further, in data set [2] (setting [4]), the solubility is > 20 mg/mL.
